System: MV4:11 human cancer cell lines
Assay: Cellular viability / anti-proliferative activity, CellTiter-Glo, 5 day protocol
Format: cell-based
Conditions: Homo sapiens, MV4-11, 120 h, MV4:11 cells; 5 day incubation; CellTiter-Glo; mean of minimum two replicates; read-out: GI50 on cellular proliferation of MV4:11 human cancer cell lines
Method in brief: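 Compounds were tested over 22 two-fold dilutions starting at 30 μM in 0.3% DMSO, with 200 cells per well (7200 cells/mL). Viability was measured by CellTiter-Glo luminescence at day 5.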

| GI50 | SMILES |
| --- | --- |
| 837 nM | CCn1cc(-c2cc(Cn3ccoc3=N)cc3c2CCN(Cc2cc(OC)ccn2)C3=O)cn1 [Example 87, 5-(1-Ethyl-1H-pyrazol-4-yl)-7-((2-iminooxazol-3(2H)-yl)methyl)-2-((4-methoxypyridin-2-yl)methyl)-3,4-dihydroisoquinolin-1(2H)-one] |
| < 50 nM | Cc1ccnc(CN2CCc3c(cc(Cn4ccoc4=N)cc3-c3cn(C)nc3C(F)(F)F)C2=O)c1 [Example 88, 7-((2-Iminooxazol-3(2H)-yl)methyl)-5-(1-methyl-3-(trifluoromethyl)-1H-pyrazol-4-yl)-2-((4-methylpyridin-2-yl)methyl)-3,4-dihydroisoquinolin-1(2H)-one] |
| < 50 nM | CCn1cc(-c2cc(Cn3ccoc3=N)cc3c2CCN(Cc2cc(OC)ccn2)C3=O)c(C(F)(F)F)n1 [Example 89, 5-(1-Ethyl-3-(trifluoromethyl)-1H-pyrazol-4-yl)-7-((2-iminooxazol-3(2H)-yl)methyl)-2-((4-methoxypyridin-2-yl)methyl)-3,4-dihydroisoquinolin-1(2H)-one] |
| 209 nM | CCn1cc(-c2cc(Cn3ccoc3=N)cc3c2CCN(Cc2cc(OC)ccn2)C3=O)c(C)n1 [Example 90, 5-(1-Ethyl-3-methyl-1H-pyrazol-4-yl)-7-((2-iminooxazol-3(2H)-yl)methyl)-2-((4-methoxypyridin-2-yl)methyl)-3,4-dihydroisoquinolin-1(2H)-one] |
| < 50 nM | CCn1cc(-c2cc(Cn3ccoc3=N)cc3c2CCN([C@@H](C)c2cc(OC)ccn2)C3=O)c(C(F)(F)F)n1 [Example 91, (S)-5-(1-Ethyl-3-(trifluoromethyl)-1H-pyrazol-4-yl)-7-((2-iminooxazol-3(2H)-yl)methyl)-2-(1-(4-methoxypyridin-2-yl)ethyl)-3,4-dihydroisoquinolin-1(2H)-one] |
| < 50 nM | COc1ccnc([C@H](C)N2CCc3c(cc(Cn4ccoc4=N)cc3-c3cn(C)nc3C(F)(F)F)C2=O)c1 [Example 93, (S)-7-((2-Iminooxazol-3(2H)-yl)methyl)-2-(1-(4-methoxypyridin-2-yl)ethyl)-5-(1-methyl-3-(trifluoromethyl)-1H-pyrazol-4-yl)-3,4-dihydroisoquinolin-1(2H)-one] |
| 159 nM | CCn1cc(-c2cc(Cn3ccoc3=N)cc3c2CCN(Cc2cc(C)nn2C)C3=O)c(C(F)(F)F)n1 [Example 94, 2-((1,3-Dimethyl-1H-pyrazol-5-yl)methyl)-5-(1-ethyl-3-(trifluoromethyl)-1H-pyrazol-4-yl)-7-((2-iminooxazol-3(2H)-yl)methyl)-3,4-dihydroisoquinolin-1(2H)-one] |
| 197 nM | CCn1cc(-c2cc(CN3CCOC3=N)cc3c2CCN(Cc2cc(C)nn2C)C3=O)c(C(F)(F)F)n1 [Example 95, 2-((1,3-Dimethyl-1H-pyrazol-5-yl)methyl)-5-(1-ethyl-3-(trifluoromethyl)-1H-pyrazol-4-yl)-7-((2-iminooxazolidin-3-yl)methyl)-3,4-dihydroisoquinolin-1(2H)-one] |
| < 50 nM | CCn1cc(CN2CCc3c(cc(Cn4ccoc4=N)cc3-c3cn(CC)nc3C(F)(F)F)C2=O)nn1 [Example 96, 2-((1-Ethyl-1H-1,2,3-triazol-4-yl)methyl)-5-(1-ethyl-3-(trifluoromethyl)-1H-pyrazol-4-yl)-7-((2-iminooxazol-3(2H)-yl)methyl)-3,4-dihydroisoquinolin-1(2H)-one] |
| 212 nM | CCn1cc(-c2cc(Cn3ccoc3=N)cc3c2CCN(Cc2cn(C)nc2C)C3=O)c(C(F)(F)F)n1 [Example 97, 2-((1,3-Dimethyl-1H-pyrazol-4-yl)methyl)-5-(1-ethyl-3-(trifluoromethyl)-1H-pyrazol-4-yl)-7-((2-iminooxazol-3(2H)-yl)methyl)-3,4-dihydroisoquinolin-1(2H)-one] |
| 207 nM | CCn1cc(-c2cc(CN3CCOC3=N)cc3c2CCN(Cc2cn(C)nc2C)C3=O)c(C(F)(F)F)n1 [Example 98, 2-((1,3-Dimethyl-1H-pyrazol-4-yl)methyl)-5-(1-ethyl-3-(trifluoromethyl)-1H-pyrazol-4-yl)-7-((2-iminooxazolidin-3-yl)methyl)-3,4-dihydroisoquinolin-1(2H)-one] |
| 77 nM | CCn1cc(CN2CCc3c(cc(CN4CCOC4=N)cc3-c3cn(CC)nc3C(F)(F)F)C2=O)nn1 [Example 99, 2-((1-Ethyl-1H-1,2,3-triazol-4-yl)methyl)-5-(1-ethyl-3-(trifluoromethyl)-1H-pyrazol-4-yl)-7-((2-iminooxazolidin-3-yl)methyl)-3,4-dihydroisoquinolin-1(2H)-one] |
| 269 nM | COc1cc(CN2CCc3c(cc(CN4CCSC4=N)cc3-c3ccc(F)cc3C)C2=O)cc(OC)c1 [Example 100, 2-(3,5-Dimethoxybenzyl)-5-(4-fluoro-2-methylphenyl)-7-((2-iminothiazolidin-3-yl)methyl)-3,4-dihydroisoquinolin-1(2H)-one] |
| < 50 nM | COc1ccnc(CN2CCc3c(cc(Cn4ccsc4=N)cc3-c3cn(C)nc3C(F)(F)F)C2=O)c1 [Example 101, 7-((2-Iminothiazol-3(2H)-yl)methyl)-2-((4-methoxypyridin-2-yl)methyl)-5-(1-methyl-3-(trifluoromethyl)-1H-pyrazol-4-yl)-3,4-dihydroisoquinolin-1(2H)-one] |
| > 938 nM | CCn1cc(-c2cc(Cn3ccsc3=N)cc3c2CCN(Cc2cc(OC)ccn2)C3=O)cn1 [Example 102, 5-(1-ethyl-1H-pyrazol-4-yl)-7-((2-iminothiazol-3(2H)-yl)methyl)-2-((4-methoxypyridin-2-yl)methyl)-3,4-dihydroisoquinolin-1(2H)-one] |
| > 938 nM | COc1ccnc(CN2CCc3c(cc(Cn4cc(F)sc4=N)cc3-c3cn(C)nc3C(F)(F)F)C2=O)c1 [Example 103, 7-((5-Fluoro-2-iminothiazol-3(2H)-yl)methyl)-2-((4-methoxypyridin-2-yl)methyl)-5-(1-methyl-3-(trifluoromethyl)-1H-pyrazol-4-yl)-3,4-dihydroisoquinolin-1(2H)-one] |
| < 50 nM | CCn1cc(-c2cc(Cn3ccsc3=N)cc3c2CCN([C@@H](C)c2cc(OC)ccn2)C3=O)c(C(F)(F)F)n1 [Example 104, (S)-5-(1-Ethyl-3-(trifluoromethyl)-1H-pyrazol-4-yl)-7-((2-iminothiazol-3(2H)-yl)methyl)-2-(1-(4-methoxypyridin-2-yl)ethyl)-3,4-dihydroisoquinolin-1(2H)-one] |
| < 50 nM | COc1ccnc([C@H](C)N2CCc3c(cc(Cn4ccsc4=N)cc3-c3cn(C)nc3C(F)(F)F)C2=O)c1 [Example 105, (S)-7-((2-iminothiazol-3(2H)-yl)methyl)-2-(1-(4-methoxypyridin-2-yl)ethyl)-5-(1-methyl-3-(trifluoromethyl)-1H-pyrazol-4-yl)-3,4-dihydroisoquinolin-1(2H)-one] |
| 181 nM | COc1ccnc(CN2CCc3c(cc(CN4CCCC4=N)cc3-c3cn(C)nc3C(F)(F)F)C2=O)c1 [Example 108, 7-((2-Iminopyrrolidin-1-yl)methyl)-2-((4-methoxypyridin-2-yl)methyl)-5-(1-methyl-3-(trifluoromethyl)-1H-pyrazol-4-yl)-3,4-dihydroisoquinolin-1(2H)-one] |
| 104 nM | COc1cc(CN2CCc3c(cc(CN4CCCC4=N)cc3-c3cn(C)nc3C(F)(F)F)C2=O)cc(OC)c1 [Example 109, 2-(3,5-Dimethoxybenzyl)-7-((2-iminopyrrolidin-1-yl)methyl)-5-(1-methyl-3-(trifluoromethyl)-1H-pyrazol-4-yl)-3,4-dihydroisoquinolin-1(2H)-one] |
| > 938 nM | COc1ccnc(CN2CCc3c(cc(CN4CCCC4=N)cc3-c3cn(C)nc3C)C2=O)c1 [Example 110, 5-(1,3-Dimethyl-1H-pyrazol-4-yl)-7-((2-iminopyrrolidin-1-yl)methyl)-2-((4-methoxypyridin-2-yl)methyl)-3,4-dihydroisoquinolin-1(2H)-one] |
| > 938 nM | CCn1cc(-c2cc(CN3CCCC3=N)cc3c2CCN(Cc2cc(OC)ccn2)C3=O)cn1 [Example 111, 5-(1-Ethyl-1H-pyrazol-4-yl)-7-((2-iminopyrrolidin-1-yl)methyl)-2-((4-methoxypyridin-2-yl)methyl)-3,4-dihydroisoquinolin-1(2H)-one] |
| 160 nM | Cc1ccnc(CN2CCc3c(cc(CN4CCCC4=N)cc3-c3cn(C)nc3C(F)(F)F)C2=O)c1 [Example 112, 7-((2-Iminopyrrolidin-1-yl)methyl)-5-(1-methyl-3-(trifluoromethyl)-1H-pyrazol-4-yl)-2-((4-methylpyridin-2-yl)methyl)-3,4-dihydroisoquinolin-1(2H)-one] |
| 462 nM | COc1cc(CN2CCc3c(cc(CN4CCCC4=N)cc3-c3ccc(F)cc3C)C2=O)cc(OC)c1 [Example 113, 2-(3,5-Dimethoxybenzyl)-5-(4-fluoro-2-methylphenyl)-7-((2-iminopyrrolidin-1-yl)methyl)-3,4-dihydroisoquinolin-1(2H)-one] |
| 129 nM | COc1ccnc(CN2CCc3c(cc(CN4CCCC4=N)cc3-c3ccc(F)cc3C)C2=O)c1 [Example 114, 5-(4-Fluoro-2-methylphenyl)-7-((2-iminopyrrolidin-1-yl)methyl)-2-((4-methoxypyridin-2-yl)methyl)-3,4-dihydroisoquinolin-1(2H)-one] |
| > 938 nM | CCn1cc(-c2cc(CN3Cc4ccccc4C3=N)cc3c2CCN(Cc2cc(OC)ccn2)C3=O)c(C(F)(F)F)n1 [Example 115, 5-(1-Ethyl-3-(trifluoromethyl)-1H-pyrazol-4-yl)-7-((1-iminoisoindolin-2-yl)methyl)-2-((4-methoxypyridin-2-yl)methyl)-3,4-dihydroisoquinolin-1(2H)-one] |
| 268 nM | COc1cc(CN2CCc3c(cc(Cn4ccccc4=N)cc3-c3ccc(F)cc3C)C2=O)cc(OC)c1 [Example 116, 2-(3,5-Dimethoxybenzyl)-5-(4-fluoro-2-methylphenyl)-7-((2-iminopyridin-1(2H)-yl)methyl)-3,4-dihydroisoquinolin-1(2H)-one] |

| SMILES | GI50 |
| --- | --- |
| COc1cc(CN2CCc3c(OC4CCC4)cc(Cn4ccoc4=N)cc3C2=O)cc(OC)c1 [Example 92, 5-Cyclobutoxy-2-(3,5-dimethoxybenzyl)-7-((2-iminooxazol-3(2H)-yl)methyl)-3,4-dihydroisoquinolin-1(2H)-one] | > 938 nM |
